pIC50: −log10 of the molar value. Several values for one entry are separate records, joined by “and”; a condition that tells them apart may be missing. Identical values can stand only once. Like-named read-outs stand apart in the source and are kept apart here.
Key:
Mino cells = experiment: AlamarBlue cell viability assay, Mino; type: cell-based; settings: for Mino Cell Viability%: Figure 2f, 5 replicates; for pIC50: Mino cells, 72 h, Alamar Blue
Method: (§1) The IC50 was calculated using GraphPad Prism software with a four-parameter dose-response curve fit.

BTK-NanoLuc fusion = target: T1, BTK-NanoLuc fusion (Homo sapiens, UniProt Q06187); experiment: NanoBRET BTK in-cell target engagement assay; type: cell-based; settings: for NanoBRET(%): Figure 3d, triplicates
T1 construct: host or cells: HEK 293T/17
Method: The target engagement assay for BTK or CRBN was from Promega (BTK kit, Cat. No. N2500; CRBN kit, Cat. No. CS1810C136) and was performed according to the manufacture’s instruction with some modifications. Briefly, HEK 293/T17 cells (ATCC) were transiently transfected with BTK-NanoLuc® fusion vector or NanoLuc®-CRBN fusion vector (Promega) in 0.125 M CaCl2 and 1x HBS. Forty-eight hours after transfection, the cells were resuspended in Opti-MEM medium (Life Technologies, Cat. No. 11058021) at the density of 2 × 10^5 cells per mL and were plated into 96-well plates (Corning, Cat. No. CLS3600). Cells were incubated with 1.0 µM (BTK) or 0.5 µM (CRBN) NanoBRET™ Tracer and serially diluted unlabeled BTK PROTAC compounds (from 10 to 0.0032 µM, 5-fold dilution) for 2 h at 37 °С with 5% CO2 in an incubator. After 2 h incubation, the 3X Nano-Glo® Substrate with NanoLuc® extracellular inhibitor were added to cells and developed for 3 min at room temperature. BRET signals were collected using a BioTek SYNERGY H1 microplate reader equipped with a 450/80-nm BP filter for donor emission and a 610-nm LP filter for acceptor emission. BRET Ratio was calculated with the equation: [(Acceptor sample/Donor sample)–(Acceptor no tracer control/Donor no tracer control)] × 1000. The IC50 of the compound against its BTK or CRBN tracer was calculated using GraphPad Prism software.

MOLM-14 cells = experiment: AlamarBlue cell viability assay, MOLM-14; settings: for MOLM-14 Cell Viability%: Figure 2f, 5 replicates
Method: as §1

BTK [1] = target: BTK (Homo sapiens, UniProt Q06187); experiment: BTK degradation in MOLM-14 cells (western blot); type: cell-based; design: endogenous in cells; host or cells: MOLM-14; settings: Figure 2b, duplicates
BTK [2] = target: BTK (Mus musculus, UniProt P35991); experiment: BTK degradation in mouse B-cell lymphoma cell line derived from Eu-Myc mice; type: cell-based; design: endogenous in cells; host or cells: B cell lymphoma cell line derived from Eu-Myc mice; settings: Supplementary Figure 10, replicates, DMSO about 100
Method: MOLM-14 cell line was obtained from Dr. Conneely at Baylor College of Medicine, and the Mino cells were purchased from the American Type Culture Collection (ATCC, Cat. No. CRL-3000). Both cell lines were cultured in RPMI 1640 medium (Thermo Fisher Scientific, Cat. No. MT10040CV) supplemented with 10% fetal bovine serum (GE Healthcare, Cat. No. SH30071.03) and 1% Pen/Strep (Thermo Fisher Scientific, Cat. No. 15140163). The wild-type and C481S BTK XLA cell lines were gifts from Dr. Woyach at The Ohio State University and were cultured in RPMI 1640 medium with 15% fetal bovine serum, 1% Pen/Strep, and 1.0 µg/ml puromycin (Thermo Fisher Scientific, Cat. No. A1113803). HEK 293T/17 cells were purchased from ATCC (Cat. No. CRL-11268) were maintained in DMEM (Thermo Fisher Scientific, Cat. No. MT10013CV) with 10% fetal bovine serum and 1% Pen-Strep. The B cell lymphoma cell line derived from Eu-Myc mice was a gift from Dr. Yulin Li at Houston Methodist Research Institute and cultured in RPMI 1640 medium supplemented with 15% (v/v) fetal bovine serum (FBS), 100 U/mL penicillin, 100 μg/mL streptomycin, and 0.05 mM beta-mercaptoethanol and puromycin (1 μg/mL). Cells were grown at 37 °C with 5% CO2.
The collected cells and spleen tissues were lysed in RIPA lysis buffer (50 mM Tris-HCl, pH 7.4, 150 mM NaCl, 1% NP-40, 0.5% sodium deoxycholate, 0.1% SDS) supplemented with Halt™ Protease and Phosphatase Inhibitor Cocktail (Thermo Fisher Scientific, Cat. No. PI78440) immediately before use. Lysates were centrifuged at 15,000 × g for 10 min at 4 °C and the supernatant was quantified for total protein concentration using the Pierce BCA Protein Assay (Thermo Fisher Scientific, Cat. No. 23225). Thirty micrograms of protein were loaded onto sodium dodecyl sulfate−polyacrylamide gel for electrophoresis (Bio-Rad) and transferred onto PVDF membranes (Millipore, Cat. No. IPVH00010). […] Imaging was performed using the ECL Prime chemiluminescent western blot detection reagents (GE Healthcare, Cat. No. RPN2232) by visualization of the blots to X-Ray film or with an Imager (Kindle Biosciences, Cat. No. D1001). All western blots were subsequently processed and quantified with Imager software. Protein level was normalized to β-actin or GAPDH loading controls.

T1 sequence (Q06187 whole entry, the tested form may be a part): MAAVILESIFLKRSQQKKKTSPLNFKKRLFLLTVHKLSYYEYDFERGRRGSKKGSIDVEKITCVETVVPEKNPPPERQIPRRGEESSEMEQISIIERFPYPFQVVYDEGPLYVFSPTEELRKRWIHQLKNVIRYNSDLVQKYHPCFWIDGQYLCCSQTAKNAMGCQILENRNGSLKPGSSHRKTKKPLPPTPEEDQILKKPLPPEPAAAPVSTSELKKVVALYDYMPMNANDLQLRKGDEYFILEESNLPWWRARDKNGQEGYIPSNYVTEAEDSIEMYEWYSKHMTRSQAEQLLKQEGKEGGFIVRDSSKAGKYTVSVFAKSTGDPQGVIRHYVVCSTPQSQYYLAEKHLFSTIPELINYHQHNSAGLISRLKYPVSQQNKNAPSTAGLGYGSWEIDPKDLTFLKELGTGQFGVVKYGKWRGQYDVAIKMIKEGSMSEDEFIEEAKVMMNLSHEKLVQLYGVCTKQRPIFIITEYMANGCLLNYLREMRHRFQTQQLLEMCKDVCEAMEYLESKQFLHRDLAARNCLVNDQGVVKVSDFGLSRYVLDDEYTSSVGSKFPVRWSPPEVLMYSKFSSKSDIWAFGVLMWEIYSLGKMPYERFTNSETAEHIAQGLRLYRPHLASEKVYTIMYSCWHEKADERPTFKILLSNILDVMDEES
Chain of BTK (Homo sapiens, UniProt Q06187) (Q06187 whole entry): as the sequence (Q06187 whole entry, the tested form may be a part) above
Chain of BTK (Mus musculus, UniProt P35991) (P35991 whole entry): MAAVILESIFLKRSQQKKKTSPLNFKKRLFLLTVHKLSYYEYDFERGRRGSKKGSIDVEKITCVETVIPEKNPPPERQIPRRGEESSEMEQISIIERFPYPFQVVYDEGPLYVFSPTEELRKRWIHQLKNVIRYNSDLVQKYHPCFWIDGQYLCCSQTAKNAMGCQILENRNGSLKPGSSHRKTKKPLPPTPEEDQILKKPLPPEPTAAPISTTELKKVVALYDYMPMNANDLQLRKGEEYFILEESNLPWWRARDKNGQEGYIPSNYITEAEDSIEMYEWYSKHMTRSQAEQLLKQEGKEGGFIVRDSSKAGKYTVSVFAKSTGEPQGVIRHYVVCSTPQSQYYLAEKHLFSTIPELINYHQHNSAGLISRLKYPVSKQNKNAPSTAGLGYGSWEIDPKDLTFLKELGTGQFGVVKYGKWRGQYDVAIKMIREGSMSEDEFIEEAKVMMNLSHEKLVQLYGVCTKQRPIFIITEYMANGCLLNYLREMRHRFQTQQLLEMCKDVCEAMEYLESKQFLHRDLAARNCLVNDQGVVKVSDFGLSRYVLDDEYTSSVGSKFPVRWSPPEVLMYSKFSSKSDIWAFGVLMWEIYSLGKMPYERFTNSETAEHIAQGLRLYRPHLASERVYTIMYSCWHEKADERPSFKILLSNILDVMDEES

SMILES: Cc1c(NC(=O)c2ccc(C(C)(C)C)cc2)cccc1-c1cn(C)c(=O)c(Nc2ccc(C(=O)N3CCN(CCCCCCNC(=O)CNc4cccc5c4C(=O)N(C4CCC(=O)NC4=O)C5=O)CC3)cc2)n1 (stereo not drawn) [DD-03-171, reference compound]
- Mino Cell Viability% (Mino cells; 1.00E-06 M): 32.4788% and 32.2293% and 34.0942% and 35.4207% and 39.7021%
- Mino Cell Viability% (Mino cells; 1.60E-09 M): 121.168% and 104.266% and 118.227% and 107.943% and 119.96%
- Mino Cell Viability% (Mino cells; 2.00E-07 M): 36.6289% and 34.2124% and 35.7227% and 37.3775% and 42.3025%
- Mino Cell Viability% (Mino cells; 3.20E-10 M): 132.424% and 103.701% and 122.994% and 107.72% and 141.013%
- Mino Cell Viability% (Mino cells; 4.00E-08 M): 54.0832% and 46.6234% and 39.8335% and 52.888% and 75.1359%
- Mino Cell Viability% (Mino cells; 5.00E-06 M): 39.9385% and 37.4432% and 38.9273% and 39.4395% and 47.3326%
- Mino Cell Viability% (Mino cells; 8.00E-09 M): 56.5785% and 60.1245% and 102.834% and 110.123% and 118.502%
- pIC50 (Mino cells): 7.30
- NanoBRET(%) (BTK-NanoLuc fusion; 1.00E-05 M): 22.6421% and 28.6973% and 22%
- NanoBRET(%) (BTK-NanoLuc fusion; 1.60E-08 M): 88.8537% and 90.4209% and 91.9881%
- NanoBRET(%) (BTK-NanoLuc fusion; 2.00E-06 M): 21.3125% and 25.7571% and 22.7507%
- NanoBRET(%) (BTK-NanoLuc fusion; 3.20E-09 M): 94.8868% and 96.3909% and 104.805%
- NanoBRET(%) (BTK-NanoLuc fusion; 4.00E-07 M): 28.4685% and 42.1101% and 35.114%
- NanoBRET(%) (BTK-NanoLuc fusion; 8.00E-08 M): 85.0919% and 75.63% and 91.5725%
- MOLM-14 Cell Viability% (MOLM-14 cells; 1.00E-05 M): 97.5451% and 84.66% and 89.4149% and 67.5953% and 78.1969%
- MOLM-14 Cell Viability% (MOLM-14 cells; 1.60E-08 M): 83.9791% and 92.5848% and 65.981% and 62.9872% and 76.0308%
- MOLM-14 Cell Viability% (MOLM-14 cells; 2.00E-06 M): 93.025% and 80.0636% and 90.2426% and 67.3429% and 78.4493%
- MOLM-14 Cell Viability% (MOLM-14 cells; 3.20E-09 M): 93.7588% and 71.6575% and 86.4445% and 88.7633% and 72.8844%
- MOLM-14 Cell Viability% (MOLM-14 cells; 4.00E-07 M): 97.2809% and 75.3792% and 70.6831% and 69.0687% and 74.7981%
- MOLM-14 Cell Viability% (MOLM-14 cells; 6.40E-10 M): 106.497% and 80.5215% and 63.4862% and 80.6741% and 69.8495%
- MOLM-14 Cell Viability% (MOLM-14 cells; 8.00E-08 M): 102.353% and 96.782% and 97.1048% and 76.9172% and 82.8931%
- pIC50 (MOLM-14 cells; read-out: Cell viability IC50, MOLM-14 cells, 72 h, Alamar Blue): < 5.00

SMILES: Nc1ncnc2c1c(-c1ccc(Oc3ccccc3)cc1)nn2C1CCN(CCOCCOCC(=O)Nc2ccc3c(c2)C(=O)N(C2CCC(=O)NC2=O)C3=O)CC1 (stereo not drawn) [MT-802, reference compound]
- Mino Cell Viability% (Mino cells; 1.00E-06 M): 55.7423% and 49.4302% and 55.3437% and 39.2835% and 54.1265%
- Mino Cell Viability% (Mino cells; 1.60E-09 M): 110.483% and 109.05% and 93.6147% and 92.6129% and 76.2619%
- Mino Cell Viability% (Mino cells; 2.00E-07 M): 89.5862% and 87.1949% and 82.8432% and 61.1711% and 66.0828%
- Mino Cell Viability% (Mino cells; 3.20E-10 M): 84.5559% and 99.9483% and 73.8491% and 92.4729% and 74.9908%
- Mino Cell Viability% (Mino cells; 4.00E-08 M): 100.53% and 96.2968% and 92.2144% and 82.8217% and 85.9885%
- Mino Cell Viability% (Mino cells; 5.00E-06 M): 34.2209% and 40.5007% and 48.9347% and 30.3001% and 41.1685%
- Mino Cell Viability% (Mino cells; 8.00E-09 M): 99.2266% and 99.1512% and 91.8158% and 60.6002% and 61.5373%
- pIC50 (Mino cells; Homo sapiens): 6.00
- NanoBRET(%) (BTK-NanoLuc fusion; 1.00E-05 M): 8.881% and 7.144% and 4.414%
- NanoBRET(%) (BTK-NanoLuc fusion; 1.60E-08 M): 91.6984% and 97.1324% and 98.4487%
- NanoBRET(%) (BTK-NanoLuc fusion; 2.00E-06 M): 18.1369% and 17.2809% and 19.5819%
- NanoBRET(%) (BTK-NanoLuc fusion; 3.20E-09 M): 100.618% and 96.0652% and 96.5159%
- NanoBRET(%) (BTK-NanoLuc fusion; 4.00E-07 M): 66.8491% and 61.8713% and 67.4598%
- NanoBRET(%) (BTK-NanoLuc fusion; 8.00E-08 M): 83.5249% and 103.088% and 96.5333%
- pIC50 (BTK-NanoLuc fusion; HEK-293 cells, BTK tracer 1.0 µM, experiment of Fig. 3d, read-out: BTK target engagement IC50): 6.18
- MOLM-14 Cell Viability% (MOLM-14 cells; 1.00E-05 M): 30.9193% and 24.2086% and 26.5576% and 19.8014% and 27.7094%
- MOLM-14 Cell Viability% (MOLM-14 cells; 1.60E-08 M): 94.0978% and 96.8402% and 91.572% and 84.5934% and 78.4642%
- MOLM-14 Cell Viability% (MOLM-14 cells; 2.00E-06 M): 75.5166% and 72.09% and 75.4424% and 57.762% and 72.8197%
- MOLM-14 Cell Viability% (MOLM-14 cells; 3.20E-09 M): 96.9942% and 95.4205% and 85.785% and 84.5706% and 80.2089%
- MOLM-14 Cell Viability% (MOLM-14 cells; 4.00E-07 M): 88.0029% and 82.2386% and 86.6288% and 76.8507% and 80.4769%
- MOLM-14 Cell Viability% (MOLM-14 cells; 6.40E-10 M): 81.9593% and 80.8361% and 77.1985% and 75.6192% and 75.9328%
- MOLM-14 Cell Viability% (MOLM-14 cells; 8.00E-08 M): 97.8209% and 89.394% and 93.0772% and 82.672% and 84.7872%
- pIC50 (MOLM-14 cells; Homo sapiens, MOLM-14, 72 h, read-out: Cell viability IC50, MOLM-14 cells, 72 h, Alamar Blue): 5.33
- Quantification anti-BTK / anti-β-actin (BTK level vs DMSO) (BTK [1]; 8 nM): 79.5706 and 82.6481
- Quantification anti-BTK / anti-β-actin (BTK level vs DMSO) (BTK [1]; 40 nM): 47.7374 and 48.0125
- Quantification anti-BTK / anti-β-actin (BTK level vs DMSO) (BTK [1]; 200 nM): 22.5968 and 20.4165
- BTK quantification (anti-BTK / anti-β-actin) (BTK [2]; 8 nM): 79.5706 and 82.6481
- BTK quantification (anti-BTK / anti-β-actin) (BTK [2]; 40 nM): 47.7374 and 48.0125
- BTK quantification (anti-BTK / anti-β-actin) (BTK [2]; 200 nM): 22.5968 and 20.4165

— PMC7450057, “Enhancing intracellular accumulation and target engagement of PROTACs with reversible covalent chemistry” (Nature Communications, 2020)
